From patent publication US8227613B2, “Heteroaryl carboxamide derivatives” (Hoffmann-La Roche Inc., priority 2008, dated 2012)
pIC50: −log10 of the molar value.

The compounds below were run against T1, human chemokine receptor 2 isoform B (CCR2B) (Homo sapiens, UniProt P41597) (assay: Calcium mobilization assay (FLIPR, MCP-1 stimulated CHOK1-CCR2B-A5 cells)). Conditions: 20 nM MCP-1, antagonist activity, read-out: IC50 (inhibitor concentration required for 50% inhibition of specific calcium increases).
T1 construct: host or cells: CHO-K1 (CHOK1-CCR2B-A5)
T1 sequence (P41597 1-360 isoform P41597-2): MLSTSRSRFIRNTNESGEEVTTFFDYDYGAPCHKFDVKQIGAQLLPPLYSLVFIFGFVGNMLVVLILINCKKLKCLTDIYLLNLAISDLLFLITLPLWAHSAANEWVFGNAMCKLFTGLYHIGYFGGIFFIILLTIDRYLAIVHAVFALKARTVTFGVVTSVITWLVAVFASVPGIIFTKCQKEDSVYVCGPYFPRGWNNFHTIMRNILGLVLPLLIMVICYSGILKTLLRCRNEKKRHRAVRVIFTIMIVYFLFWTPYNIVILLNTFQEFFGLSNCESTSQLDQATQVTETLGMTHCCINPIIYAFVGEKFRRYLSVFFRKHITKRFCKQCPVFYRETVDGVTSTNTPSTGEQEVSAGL
Type: cell-based
Experimental: Calcium Mobilization Assay
CHOK1-CCR2B-A5 cells (from Euroscreen) stably overexpressing the human chemokine receptor 2 isoform B were cultured in Nutrient Hams F12 medium supplemented with 5% FBS, 100 U/ml penicillin, 100 μg/ml streptomycin, 400 μg/ml G418 and 5 μg/ml puromycin.
For the assay cells were grown overnight in 384-well black clear flat bottom polystyrene plates (Costar) at 37° C. at 5% CO2. After washing with DMEM, 20 mM Hepes, 2.5 mM probenecid, 0.1% BSA (DMEM assay buffer) cells were loaded with 4 μM Fluo-4 in the same DMEM assay buffer for 2 hours at 30° C. Excess dye was removed and cells were washed with DMEM assay buffer. 384-well compound plates were prepared with DMEM assay buffer/0.5% DMSO with or without various concentrations of test compounds. Usually compounds were tested for agonist and antagonist activity.
Test compounds were added to the assay plate and agonist activity was monitored as fluorescence for 80 seconds with a FLIPR (488 nm excitation; 510-570 nm emission; Molecular Devices). After 20-30 min. of incubation at 30° C., 20 nM MCP-1 (R&D; Roche) was added and fluorescence was monitored again for 80 seconds. Increases in intracellular calcium are reported as maximum fluorescence after agonist exposure minus basal fluorescence before exposure. Antagonist activity is indicated as inhibitor concentration required for 50% inhibition of specific calcium increases.

Row | SMILES | pIC50
1 | Cc1cc(-c2ccc(F)c(C(F)(F)F)c2)cnc1C(=O)N1CCC(N2CCCC2)CC1 [Example 34, [5-(4-Fluoro-3-trifluoromethyl-phenyl)-3-methyl-pyridin-2-yl]-(4-pyrrolidin-1-yl-piperidin-1-yl)-methanone] | 7.23
2 | Cc1cc(-c2cccc(C(F)(F)F)c2)c(-c2cc[nH]n2)nc1C(=O)N1CCC(N2CCCC2)CC1 [Example 49, [3-Methyl-6-(1H-pyrazol-3-yl)-5-(3-trifluoromethyl-phenyl)-pyridin-2-yl]-(4-pyrrolidin-1-yl-piperidin-1-yl)-methanone] | 8.00
3 | Cc1cc(-c2cc(C(F)(F)F)ccc2F)c[n+]([O-])c1C(=O)N1CCC(N2CCCC2)CC1 [Example 67, [5-(2-Fluoro-5-trifluoromethyl-phenyl)-3-methyl-1-oxy-pyridin-2-yl]-(4-pyrrolidin-1-yl-piperidin-1-yl)-methanone] | 7.23
4 | Cc1cc(-c2cccc(C(F)(F)F)c2)c(-n2cnc(Cl)n2)nc1C(=O)N1CCC(N2CCCC2)CC1 [Example 20, [6-(3-Chloro-[1,2,4]triazol-1-yl)-3-methyl-5-(3-trifluoromethyl-phenyl)-pyridin-2-yl]-(4-pyrrolidin-1-yl-piperidin-1-yl)-methanone] | 8.40
5 | COc1ccc(C(F)(F)F)cc1-c1cnc(C(=O)N2CCC(N3CCCC3)CC2)c(C)c1 [Example 33, [5-(2-Methoxy-5-trifluoromethyl-phenyl)-3-methyl-pyridin-2-yl]-(4-pyrrolidin-1-yl-piperidin-1-yl)-methanone] | 7.80
6 | COc1ccc(-c2cnc(C(=O)N3CCC(N4CCCC4)CC3)c(C)c2)cc1C(F)(F)F [Example 35, [5-(4-Methoxy-3-trifluoromethyl-phenyl)-3-methyl-pyridin-2-yl]-(4-pyrrolidin-1-yl-piperidin-1-yl)-methanone] | 6.25
7 | CC(=O)N(C(C)=O)c1nc(C(=O)N2CCC(N3CCCC3)CC2)c(C)cc1-c1cccc(C(F)(F)F)c1 [Example 10, N-Acetyl-N-[5-methyl-6-(4-pyrrolidin-1-yl-piperidine-1-carbonyl)-3-(3-trifluoromethyl-phenyl)-pyridin-2-yl]-acetamide] | 7.11
8 | O=C(c1nc(Cl)c(-c2cccc(C(F)(F)F)c2)cc1Cl)N1CCC(N2CCCC2)CC1 [Example 21, [3,6-Dichloro-5-(3-trifluoromethyl-phenyl)-pyridin-2-yl]-(4-pyrrolidin-1-yl-piperidin-1-yl)-methanone] | 8.49
9 | Cc1cc(-c2cccc(C(F)(F)F)c2)c(OCCO)nc1C(=O)N1CCC(N2CCCC2)CC1 [Example 66, [6-(2-Hydroxy-ethoxy)-3-methyl-5-(3-trifluoromethyl-phenyl)-pyridin-2-yl]-(4-pyrrolidin-1-yl-piperidin-1-yl)-methanone] | 6.70
10 | Cc1cc(-c2cccc(C(F)(F)F)c2)nc(N)c1C(=O)N1CCC(N2CCCC2)CC1 [Example 19, [2-Amino-4-methyl-6-(3-trifluoromethyl-phenyl)-pyridin-3-yl]-(4-pyrrolidin-1-yl-piperidin-1-yl)-methanone] | 7.19
11 | Cc1cc(-c2cccc(C(F)(F)F)c2)cnc1C(=O)N1CCC(N2CCC[C@H]2CO)CC1 [Example 5, [4-((S)-2-Hydroxymethyl-pyrrolidin-1-yl)-piperidin-1-yl]-[3-methyl-5-(3-trifluoromethyl-phenyl)-pyridin-2-yl]-methanone] | 7.68
12 | Cc1cc(-c2cccc(C(F)(F)F)c2)c(C(=O)NCCO)nc1C(=O)N1CCC(N2CCCC2)CC1 [Example 55, 5-Methyl-6-(4-pyrrolidin-1-yl-piperidine-1-carbonyl)-3-(3-trifluoromethyl-phenyl)-pyridine-2-carboxylic acid (2-hydroxy-ethyl)-amide] | 6.89
